Laboratory results taken from ChEMBL document CHEMBL1136068 (Bioorg Med Chem Lett, 2003).
Calls of active or inactive are those of the source. The rule behind the calls is not given here.

Tests used:
[1] = molecular target: T1, Mineralocorticoid receptor (Homo sapiens) (UniProt P08235); experiment: Antagonist efficacy at mineralocorticoid receptor (hMR); not active; type: functional
T1 sequence (whole entry): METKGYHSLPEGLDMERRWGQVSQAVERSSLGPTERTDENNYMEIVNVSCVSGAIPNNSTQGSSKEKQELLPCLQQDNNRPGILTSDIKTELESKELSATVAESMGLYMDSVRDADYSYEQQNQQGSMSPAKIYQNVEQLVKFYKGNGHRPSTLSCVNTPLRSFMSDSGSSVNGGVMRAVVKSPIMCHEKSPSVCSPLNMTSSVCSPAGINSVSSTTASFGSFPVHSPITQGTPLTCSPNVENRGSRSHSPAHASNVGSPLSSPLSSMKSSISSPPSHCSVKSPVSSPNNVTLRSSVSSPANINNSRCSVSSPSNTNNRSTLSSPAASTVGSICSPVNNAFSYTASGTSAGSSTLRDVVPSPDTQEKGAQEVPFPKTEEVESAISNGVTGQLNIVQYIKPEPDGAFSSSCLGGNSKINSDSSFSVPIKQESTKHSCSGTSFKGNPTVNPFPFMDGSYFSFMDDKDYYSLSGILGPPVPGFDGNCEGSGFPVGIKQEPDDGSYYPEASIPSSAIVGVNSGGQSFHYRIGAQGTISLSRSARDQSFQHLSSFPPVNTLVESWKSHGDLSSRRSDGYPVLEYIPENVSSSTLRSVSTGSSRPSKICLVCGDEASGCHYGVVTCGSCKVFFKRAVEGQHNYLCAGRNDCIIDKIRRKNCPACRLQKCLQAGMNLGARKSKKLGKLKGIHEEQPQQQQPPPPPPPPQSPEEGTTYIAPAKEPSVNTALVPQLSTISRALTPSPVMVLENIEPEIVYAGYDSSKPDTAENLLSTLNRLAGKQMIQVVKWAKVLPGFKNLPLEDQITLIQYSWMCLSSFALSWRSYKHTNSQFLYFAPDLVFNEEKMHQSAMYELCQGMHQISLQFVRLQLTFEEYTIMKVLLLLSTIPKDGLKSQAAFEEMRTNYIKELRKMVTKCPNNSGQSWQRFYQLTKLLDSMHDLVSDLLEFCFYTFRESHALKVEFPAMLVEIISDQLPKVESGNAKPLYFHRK

[2] = molecular target: T2, Progesterone receptor (Homo sapiens, UniProt P06401); experiment: Effective concentration for agonist activity towards human progesterone receptor (hPR) using the cotransfection assay in CV-1 cells; type: functional, cell-based
T2 sequence (P06401 whole entry): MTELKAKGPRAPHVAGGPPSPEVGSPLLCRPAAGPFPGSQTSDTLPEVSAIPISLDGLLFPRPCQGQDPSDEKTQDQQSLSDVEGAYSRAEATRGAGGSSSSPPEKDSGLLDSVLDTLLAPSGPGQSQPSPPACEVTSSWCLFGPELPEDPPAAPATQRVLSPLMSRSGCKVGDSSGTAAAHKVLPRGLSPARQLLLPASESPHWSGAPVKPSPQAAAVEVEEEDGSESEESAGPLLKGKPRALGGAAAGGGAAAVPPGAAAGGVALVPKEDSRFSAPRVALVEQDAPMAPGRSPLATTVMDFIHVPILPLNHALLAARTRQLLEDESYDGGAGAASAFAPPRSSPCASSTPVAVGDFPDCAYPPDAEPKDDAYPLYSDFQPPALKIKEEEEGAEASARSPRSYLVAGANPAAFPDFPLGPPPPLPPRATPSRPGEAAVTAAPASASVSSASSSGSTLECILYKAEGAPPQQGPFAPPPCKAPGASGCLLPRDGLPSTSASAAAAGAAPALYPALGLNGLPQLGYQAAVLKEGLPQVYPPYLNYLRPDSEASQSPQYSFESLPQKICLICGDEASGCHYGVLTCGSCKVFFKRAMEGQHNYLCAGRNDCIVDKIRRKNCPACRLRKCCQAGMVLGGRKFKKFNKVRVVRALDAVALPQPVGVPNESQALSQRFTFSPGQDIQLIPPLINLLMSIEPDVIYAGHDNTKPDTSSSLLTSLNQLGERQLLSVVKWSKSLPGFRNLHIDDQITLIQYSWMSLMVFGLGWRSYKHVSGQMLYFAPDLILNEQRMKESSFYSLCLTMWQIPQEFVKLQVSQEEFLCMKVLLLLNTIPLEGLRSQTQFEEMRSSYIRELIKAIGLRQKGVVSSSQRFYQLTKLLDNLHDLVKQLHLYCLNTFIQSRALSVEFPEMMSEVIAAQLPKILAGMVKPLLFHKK

[3] = molecular target: T3, Progesterone receptor (Homo sapiens) (UniProt P06401); experiment: Agonist efficacy towards human progesterone receptor (hPR) using the cotransfection assay in CV-1 cells; type: functional, cell-based
T3 sequence (whole entry): T2 sequence (P06401 whole entry)

[4] = molecular target: T2, Progesterone receptor; experiment: Binding affinity to human progesterone receptor
[5] = molecular target: T4, Estrogen receptor (Homo sapiens, UniProt Q92731+P03372); experiment: Antagonist efficacy with estrogen (hER) receptor; not active; type: functional
[6] = molecular target: T3, Progesterone receptor (Homo sapiens); experiment: Antagonistic efficacy towards human progesterone receptor (hPR) using the cotransfection assay in CV-1 cells; Not active; type: functional, cell-based
[7] = molecular target: T4, Estrogen receptor; experiment: Inhibitory activity against human Estrogen receptor; not active; type: protein assay
[8] = molecular target: T5, Mineralocorticoid receptor (Homo sapiens, UniProt P08235); experiment: Antagonist activity at mineralocorticoid receptor (hMR); not active; type: functional
T5 sequence (P08235 whole entry): T1 sequence (whole entry)

[9] = molecular target: T2, Progesterone receptor; experiment: Inhibitory concentration for antagonistic activity towards human progesterone receptor (hPR) using the cotransfection assay in CV-1 cells; Not active; type: functional, cell-based
[10] = molecular target: T6, Glucocorticoid receptor (Homo sapiens, UniProt P04150); experiment: Antagonist activity at glucocorticoid (hGR) receptor; type: functional
T6 sequence (P04150 whole entry): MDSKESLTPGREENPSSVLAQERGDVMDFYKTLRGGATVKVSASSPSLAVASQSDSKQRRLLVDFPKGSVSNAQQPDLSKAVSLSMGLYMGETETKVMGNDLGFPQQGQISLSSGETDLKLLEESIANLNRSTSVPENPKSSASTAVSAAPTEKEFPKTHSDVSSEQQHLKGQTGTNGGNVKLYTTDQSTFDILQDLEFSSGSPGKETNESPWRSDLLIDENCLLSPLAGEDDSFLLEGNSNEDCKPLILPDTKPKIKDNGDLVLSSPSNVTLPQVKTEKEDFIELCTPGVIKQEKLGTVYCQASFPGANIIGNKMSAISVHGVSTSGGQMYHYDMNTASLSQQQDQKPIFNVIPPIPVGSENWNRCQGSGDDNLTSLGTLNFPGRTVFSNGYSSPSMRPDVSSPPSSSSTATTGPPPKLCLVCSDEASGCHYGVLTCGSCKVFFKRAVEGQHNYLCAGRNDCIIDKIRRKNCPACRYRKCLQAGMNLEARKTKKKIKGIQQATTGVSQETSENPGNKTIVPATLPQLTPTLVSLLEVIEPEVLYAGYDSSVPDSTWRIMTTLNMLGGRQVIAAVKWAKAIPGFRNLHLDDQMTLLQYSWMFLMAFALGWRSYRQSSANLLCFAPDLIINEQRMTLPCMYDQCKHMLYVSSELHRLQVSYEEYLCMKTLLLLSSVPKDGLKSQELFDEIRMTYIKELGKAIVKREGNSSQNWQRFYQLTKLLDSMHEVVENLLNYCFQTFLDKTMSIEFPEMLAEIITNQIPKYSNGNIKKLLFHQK

| Efficacy [1] [%] | EC50 [2] [nM] | Efficacy [3] [%] | Ki [4] [nM] | Efficacy [5] [%] | Efficacy [6] | IC50 [7] [nM] | IC50 [8] [nM] | IC50 [9] | IC50 [10] [nM] | Compound |
| --- | --- | --- | --- | --- | --- | --- | --- | --- | --- | --- |
| – | 11 | 112 | 8 | – | inactive | – | – | Not Active | – | CC/C(C)=C1\Oc2ccc(F)cc2-c2ccc3c(c21)C(C)=CC(C)(C)N3 |
| < 20 | 0.15 | 80 | 0.34 | < 20 | inactive | > 1000 | > 1000 | Not Active | 10 | CC(=O)C[C@]1(C(C)=O)CC[C@H]2C3C[C@H](C)C4=CC(=O)CC[C@]4(C)[C@H]3CC[C@@]21C (stereo partly drawn) |
| < 20 | 1.7 | 172 | – | < 20 | inactive | > 1000 | > 1000 | Not Active | 177 | CC(C)=C/C=C1\Oc2ccc(F)cc2-c2ccc3c(c21)C(C)=CC(C)(C)N3 |

| Compound | Efficacy [1] [%] | EC50 [2] [nM] | Efficacy [3] [%] | Ki [4] [nM] | Efficacy [5] [%] | Efficacy [6] | IC50 [7] [nM] | IC50 [8] [nM] | IC50 [9] | IC50 [10] [nM] |
| --- | --- | --- | --- | --- | --- | --- | --- | --- | --- | --- |
| CC1=CC(C)(C)Nc2ccc3c(c21)/C(=C/Br)Oc1ccc(F)cc1-3 | < 20 | 2.2 | 135 | 2.1 | < 20 | inactive | > 1000 | > 1000 | Not Active | – |
